Assay results as given in US9622990B2, “Method for inhibiting cancer cell growth” (priority 2013, dated 2017).
Converted amounts (≈) assume the structure as drawn.

Tests used:
Assay type in all cases: cell-based
[1] = tested on: A549 cell line (lung cancer); assay: MTT cell viability assay, A549; conditions: Homo sapiens, 48 hours, read-out: half maximal inhibitory concentration (IC50), A549
Experimental: (§1) Cell proliferation of A549 cell line (lung cancer), CT26 cell line (colon cancer), DU145 cell line (prostate cancer), HepG2 cell line (liver cancer), MDCK cell line (kidney from canine), PC3 cell line (prostate cancer), MDA-MB-231 cell line (breast cancer) and MCF-7 cell line (breast cancer) was assessed by MTT cell viability assay.
(§2) Above cell lines were cultured in determined medium for 24 hours. Proliferative cells were washed with PBS solution, treated with trypsin-EDTA (1×), centrifuged at 1,200 rpm for 5 min, precipitated the cells and discarded supernatant. The cells were resuspended with 10 ml of fresh medium, and then loaded to 96-well plate. While the assay initiated, 0.01˜200 μg/ml of Antrodia camphorata extract was added in each well, and the plate was incubated for 48 hours, at 37° C., 5% CO2. Each wall was added with 2.5 mg/ml MTT reagent in the dark. After 4 hours of reaction, 100 μl lysis buffer were added to each wall to terminate the reaction. […] The experiment data was represented by means±SD. All data was statistically analyzed by paired-t test, and a P-value less than 0.05 was considered significant.

[2] = tested on: CT26 cell line (colon cancer); assay: MTT cell viability assay, CT26; conditions: Mus musculus, 48 hours, read-out: half maximal inhibitory concentration (IC50), CT26
Experimental: as §1, §2

[3] = tested on: DU145 cell line (prostate cancer); assay: MTT cell viability assay, DU145; conditions: Homo sapiens; DU-145, MTT, 48 hours; read-out: half maximal inhibitory concentration (IC50), DU-145
Experimental: as §1, §2

[4] = tested on: HepG2 cell line (liver cancer); assay: MTT cell viability assay, HepG2; conditions: Homo sapiens, 48 hours, read-out: half maximal inhibitory concentration (IC50), HepG2
Experimental: as §1, §2

[5] = tested on: MDCK cell line (kidney from canine); assay: MTT cell viability assay, MDCK; conditions: Canis lupus familiaris, 48 hours, read-out: half maximal inhibitory concentration (IC50), MDCK
Experimental: as §1, §2

[6] = tested on: PC3 cell line (prostate cancer); assay: MTT cell viability assay, PC3; conditions: Homo sapiens, PC-3, 48 hours, read-out: half maximal inhibitory concentration (IC50), PC3
Experimental: as §1, §2

[7] = tested on: MDA-MB-231 cell line (breast cancer); assay: MTT cell viability assay, MDA-MB-231; conditions: Homo sapiens; MDA-MB-231, MTT, 48 hours; read-out: half maximal inhibitory concentration (IC50), MDA-MB-231
Experimental: as §1, §2

[8] = tested on: MCF-7 cell line (breast cancer); assay: MTT cell viability assay, MCF-7; conditions: Homo sapiens, MCF7; MCF-7, MTT, 48 hours; read-out: half maximal inhibitory concentration (IC50), MCF-7
Experimental: as §1, §2

various tumor cells = assay: MTT cell viability assay, statements over all cell lines; conditions: for anti cancer activity, in words: summary of table 9
Experimental: as §1, §2
The symbols used in tables respectively represent: 0˜25% cell viability: +/−; 25˜50% cell viability: +; 50˜75% cell viability: ++, 75˜100% cell viability: +++, >100% cell viability: ++++. […] In this experiment, when the drug concentration was diluted to […], DMSO concentration was 0.5%.
Accordingly, above extracts can be used for treating cancers, such as lung cancer, colon cancer, prostate cancer, liver cancer and breast cancer, and the effective compounds contained in those extracts also can be purified.
The half maximal inhibitory concentration (IC50) is a measure of the effectiveness of a compound in inhibiting biological or biochemical function. This quantitative measure indicates how much of a particular drug or other substance (inhibitor) is needed to inhibit a given biological process (e.g. cell apoptosis-inducing activity of a compound) by half. […]

SMILES	IC50 [1]	IC50 [2]	IC50 [3]	IC50 [4]	IC50 [5]	IC50 [6]	IC50 [7]	IC50 [8]	anti cancer activity, in words (various tumor cells)	IC50 value of the solvent (50% cell death) (various tumor cells; DMSO content of the diluted drug, cell line not stated)
COC1=C(OC)[C@H](OC(C)=O)[C@H](C/C=C(\C)CC/C=C(\C)CC(O)C=C(C)C)[C@@H](C)C1=O (stereo partly shown) [Antrocamol LT2, 4-acetoxy-5-[9-hydroxy-3,7,11-trimethyldodeca-2,6,10-trienyl]-2,3-dimethoxy-6-methyl-cyclohex-2-enone]	1.06 ± 0.22 µg/mL (≈ 2.36 µM)	0.8 ± 0.03 µg/mL (≈ 1.78 µM)	0.91 ± 0.08 µg/mL (≈ 2.03 µM)	0.59 ± 0.02 µg/mL (≈ 1.32 µM)	> 10 µg/mL	0.69 ± 0.06 µg/mL (≈ 1.54 µM)	1.03 ± 0.05 µg/mL (≈ 2.3 µM)	0.95 ± 0.11 µg/mL (≈ 2.12 µM)	predominant anti cancer activity	–
COC1=C(OC)[C@H](O)[C@H](C/C=C(\C)CC/C=C(\C)CC(O)C=C(C)C)[C@@H](C)C1=O (stereo partly shown) [Antrocamol LT1, 4-hydroxy-5-[9-hydroxy-3,7,11-trimethyldodeca-2,6,10-trienyl]-2,3-dimethoxy-6-methyl-cyclohex-2-enone]	0.093 ± 0.003 µg/mL (≈ 0.229 µM)	0.07 ± 0.006 µg/mL (≈ 0.172 µM)	0.057 ± 0.009 µg/mL (≈ 0.14 µM)	0.014 ± 0.001 µg/mL (≈ 0.0344 µM)	> 10 µg/mL	0.057 ± 0.002 µg/mL (≈ 0.14 µM)	0.98 ± 0.05 µg/mL (≈ 2.41 µM)	0.99 ± 0.08 µg/mL (≈ 2.44 µM)	predominant anti cancer activity	–
C[S+](C)[O-] [DMSO]	–	–	–	–	–	–	–	–	–	2.34%
